Assay results published in US11174216B2, “Lipids that increase insulin sensitivity and methods of using the same” (Beth Israel Deaconess Medical Center, Inc., priority 2012, dated 2021).

Legend:
isolated rat islets = test: Insulin release studies in rat islets; format: cell-based; conditions: 25 mM glucose in the media
Method: Ins1 cells (FIGS. 31A and 31B) or primary rat islet cells (FIG. 32A and FIG. 32B) were seeded in 24 well-plates [˜10^6 cells/well]. At confluence, cells were incubated with Low Serum [2.5%] and Low Glucose [2.5 mM] media for 12 hours. Next, cells were incubated with KRB buffer for 1 h and stimulated with glucose in the presence of 5-PAHSA (FIGS. 31a and 31B) or 9-PAHSA (FIG. 31B) for 45 min in KRB. At the end of the stimulation, 100 μL of media was collected and 10 μL was used to quantitate the amount of insulin released by ELISA. Treatment Conditions for FIGS. 31A, 31B and 32B were: • 5-PAHSA or 9-PAHSA [Stock]=20.0 mM [10.76 mg/mL Methanol] • A] 1 uM=0.3 uL/6 mL [Amount of methanol/mL=0.05 uL] • B] 5 uM=1.5 uL/6 mL [Amount of methanol/mL=0.25 uL] • C] 10 uM=3.0 uL/6 mL [Amount of methanol/mL=0.50 uL] • D] 20 uM=6.0 uL/6 mL [Amount of methanol/mL=1.00 uL] […]
Isolated rat islets were cultured overnight in RPMI 1640 medium containing 2.5 mM glucose and 2.5% fetal bovine serum supplemented with 100 IU/ml penicillin and 100 IU/ml streptomycin, 1 mM sodium pyruvate, and 10 mM HEPES (pH 7.4). […] At the end of the stimulation supernatant was collected and insulin released into the medium was quantified by ELISA as per manufacturer's protocol. The islets were lysed and protein content was measured and the amount of insulin released into the media was quantitated as ng/mL/μg of protein.

purified CEL = biological target: T1, purified CEL (Homo sapiens, UniProt P19835); test: Hydrolysis of 9-PAHSA by purified CEL; format: biochemical; conditions: micellar concentrations of NaTC
T1 construct: purchased R&D Systems
T1 sequence (P19835 21-753): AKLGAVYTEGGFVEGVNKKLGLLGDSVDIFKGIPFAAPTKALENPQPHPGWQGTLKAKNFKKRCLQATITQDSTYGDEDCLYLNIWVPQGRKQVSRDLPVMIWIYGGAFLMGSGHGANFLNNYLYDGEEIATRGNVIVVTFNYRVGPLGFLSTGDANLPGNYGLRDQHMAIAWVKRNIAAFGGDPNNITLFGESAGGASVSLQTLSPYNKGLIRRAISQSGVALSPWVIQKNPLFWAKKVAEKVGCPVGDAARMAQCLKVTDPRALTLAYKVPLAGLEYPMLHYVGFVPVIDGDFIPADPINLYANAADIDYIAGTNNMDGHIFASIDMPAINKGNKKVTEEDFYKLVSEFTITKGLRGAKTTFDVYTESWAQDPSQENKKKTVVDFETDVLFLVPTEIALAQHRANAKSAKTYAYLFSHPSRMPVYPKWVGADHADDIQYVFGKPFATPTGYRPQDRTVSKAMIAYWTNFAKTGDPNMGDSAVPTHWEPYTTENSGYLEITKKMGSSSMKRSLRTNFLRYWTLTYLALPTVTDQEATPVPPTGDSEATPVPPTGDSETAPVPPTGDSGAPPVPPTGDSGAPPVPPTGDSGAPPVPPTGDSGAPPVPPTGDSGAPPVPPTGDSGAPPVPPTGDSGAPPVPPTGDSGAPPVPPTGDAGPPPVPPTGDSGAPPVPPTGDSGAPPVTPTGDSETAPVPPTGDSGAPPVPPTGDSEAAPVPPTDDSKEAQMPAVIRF
From the text: To confirm the identification of CEL as a FAHFA hydrolase, a small amount of purified enzyme (available commercially from R&D Systems) was used.

SMILES | glucose-stimulated insulin secretion (isolated rat islets) | hydrolysis, measured by 9-HSA production (purified CEL)
CCCCCCCCCCCCCCCC(=O)OC(CCCCCCCCCCCCC)CCCC(=O)O (centres unmarked) [5-PAHSA] | potentiates glucose-stimulated insulin secretion | –
CCCCCCCCCCCCCCCC(=O)OC(CCCCCCCCC)CCCCCCCC(=O)O (centres unmarked) [9-PAHSA, palmitoyl-9-hydroxystearic acid] | – | substantial hydrolysis
